Laboratory results from ChEMBL document CHEMBL5131564, “Discovery of Potent and Selective Receptor-Interacting Serine/Threonine Protein Kinase 2 (RIPK2) Inhibitors for the Treatment of Inflammatory Bowel Diseases (IBDs)” (J Med Chem, 2022).
Active and inactive are the calls of the source. The rule behind the calls is not given here.

Columns and labels:
[1] = Clearance in Balb/C mouse plasma at 10 mg/kg, iv measured upto 48 hrs by LC-MS/MS analysis; assay type: ADME, organism-based
[2] = Toxicity in rat H9c2 cells assessed as inhibitory rate; assay type: cell-based
BMDM = experiment: Cytotoxicity against mouse BMDM cells at 62.5 to 250 nM in presence of NOD; assay type: toxicity, cell-based; details: 0.25 µM, dose 62.5-250 nM
RAW264.7 = experiment: Inhibition of MDP-stimulated TNFalpha production in mouse RAW264.7 cells assessed as TNFalpha mRNA level upto 50 nM incubated for 22 hrs by real-time PCR analysis; assay type: functional, cell-based
[3] = target: Epithelial discoidin domain-containing receptor 1 (Homo sapiens, UniProt Q08345); experiment: Inhibition of human DDR1 by kinase assay
[4] = target: Proto-oncogene tyrosine-protein kinase Src (Homo sapiens, UniProt P12931); experiment: Inhibition of human c-SRC by kinase assay
[5] = target: Mast/stem cell growth factor receptor Kit (Homo sapiens, UniProt P10721); experiment: Inhibition of human KIT by kinase assay
[6] = target: T1, Receptor-type tyrosine-protein kinase FLT3 (Homo sapiens, UniProt P36888); experiment: Inhibition of human FLT3 by kinase assay
T1 sequence (P36888 whole entry): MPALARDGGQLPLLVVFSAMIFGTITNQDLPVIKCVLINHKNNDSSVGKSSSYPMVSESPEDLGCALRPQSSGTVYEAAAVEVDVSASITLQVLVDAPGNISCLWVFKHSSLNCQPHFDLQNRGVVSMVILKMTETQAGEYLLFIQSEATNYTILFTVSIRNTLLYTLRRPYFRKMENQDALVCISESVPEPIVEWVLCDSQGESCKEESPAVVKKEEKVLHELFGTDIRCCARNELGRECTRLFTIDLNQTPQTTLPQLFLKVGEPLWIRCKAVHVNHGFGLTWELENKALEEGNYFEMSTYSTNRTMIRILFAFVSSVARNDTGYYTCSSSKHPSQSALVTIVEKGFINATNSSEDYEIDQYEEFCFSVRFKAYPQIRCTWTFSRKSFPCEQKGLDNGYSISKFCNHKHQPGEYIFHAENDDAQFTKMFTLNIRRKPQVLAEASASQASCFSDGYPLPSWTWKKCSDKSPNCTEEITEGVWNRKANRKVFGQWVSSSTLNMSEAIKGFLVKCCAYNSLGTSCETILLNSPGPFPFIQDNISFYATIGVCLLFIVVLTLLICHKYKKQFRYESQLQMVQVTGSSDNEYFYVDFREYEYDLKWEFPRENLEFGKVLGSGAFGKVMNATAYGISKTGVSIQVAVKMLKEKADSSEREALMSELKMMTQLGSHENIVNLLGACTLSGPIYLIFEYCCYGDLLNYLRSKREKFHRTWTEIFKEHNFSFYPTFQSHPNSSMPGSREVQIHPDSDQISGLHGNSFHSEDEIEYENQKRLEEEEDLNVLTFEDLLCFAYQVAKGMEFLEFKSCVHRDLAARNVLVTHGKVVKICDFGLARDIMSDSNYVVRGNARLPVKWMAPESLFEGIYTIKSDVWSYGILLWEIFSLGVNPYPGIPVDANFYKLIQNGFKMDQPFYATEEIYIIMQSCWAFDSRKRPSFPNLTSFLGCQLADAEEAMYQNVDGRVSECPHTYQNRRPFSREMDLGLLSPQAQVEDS

[7] = target: Receptor-interacting serine/threonine-protein kinase 3 (Homo sapiens, UniProt Q9Y572); experiment: Binding affinity to human RIPK3 in human Jurkat cells; assay type: cell-based
[8] = target: T2, Receptor-interacting serine/threonine-protein kinase 4 (Homo sapiens, UniProt P57078); experiment: Binding affinity to human RIPK4
T2 sequence (P57078 whole entry): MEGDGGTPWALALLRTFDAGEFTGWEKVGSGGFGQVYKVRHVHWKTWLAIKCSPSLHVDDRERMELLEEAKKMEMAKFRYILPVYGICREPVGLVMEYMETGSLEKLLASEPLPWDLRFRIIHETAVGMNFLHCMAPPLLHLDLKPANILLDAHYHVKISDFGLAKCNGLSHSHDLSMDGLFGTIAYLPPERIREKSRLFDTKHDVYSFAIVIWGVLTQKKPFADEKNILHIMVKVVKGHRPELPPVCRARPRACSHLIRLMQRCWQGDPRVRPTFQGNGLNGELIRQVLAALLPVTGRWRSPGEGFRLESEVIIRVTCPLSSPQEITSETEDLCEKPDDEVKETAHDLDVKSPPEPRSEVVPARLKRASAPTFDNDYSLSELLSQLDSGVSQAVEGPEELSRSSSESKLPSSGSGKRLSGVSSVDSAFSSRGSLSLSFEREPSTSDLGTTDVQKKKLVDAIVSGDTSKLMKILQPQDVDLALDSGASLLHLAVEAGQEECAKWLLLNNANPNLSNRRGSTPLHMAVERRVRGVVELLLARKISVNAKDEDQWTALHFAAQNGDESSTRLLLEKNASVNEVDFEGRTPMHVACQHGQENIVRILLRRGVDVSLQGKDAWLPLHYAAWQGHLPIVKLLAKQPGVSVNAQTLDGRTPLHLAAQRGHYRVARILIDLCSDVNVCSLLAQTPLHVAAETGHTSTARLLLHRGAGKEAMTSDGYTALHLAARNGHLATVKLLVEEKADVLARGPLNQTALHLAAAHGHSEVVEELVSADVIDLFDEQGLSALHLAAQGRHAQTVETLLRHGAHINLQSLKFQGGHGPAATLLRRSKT

[9] = Cmax in Balb/C mouse at 10 mg/kg, iv measured upto 48 hrs by LC-MS/MS analysis; assay type: ADME, organism-based; parameters: dose 10 mg/kg, time < 48 hrs, route iv; details: in vivo
[10] = Volume of distribution in Balb/C mouse at 10 mg/kg, po measured upto 48 hrs by LC-MS/MS analysis; assay type: ADME, organism-based; details: in vivo
Mus musculus = experiment: Anti-inflammatory activity against DSS-induced acute ulcerative colitis C57BL/6 mouse model assessed as reduction in disease severity at 20 to 40 mg/kg, po once a day measured after 2 days followed by 7 days after DSS treatment; assay type: functional, organism-based; details: dose 20-40 mg/kg, time 2.0 day
[11] = Drug uptake in DSS-induced acute ulcerative colitis C57BL/6 mouse model assessed as drug concentration in colon at 20 mg/kg, po after 0.5 hrs; assay type: ADME, organism-based; details: read-out: Drug uptake

Chain of Proto-oncogene tyrosine-protein kinase Src (P12931 2-536 limits assumed): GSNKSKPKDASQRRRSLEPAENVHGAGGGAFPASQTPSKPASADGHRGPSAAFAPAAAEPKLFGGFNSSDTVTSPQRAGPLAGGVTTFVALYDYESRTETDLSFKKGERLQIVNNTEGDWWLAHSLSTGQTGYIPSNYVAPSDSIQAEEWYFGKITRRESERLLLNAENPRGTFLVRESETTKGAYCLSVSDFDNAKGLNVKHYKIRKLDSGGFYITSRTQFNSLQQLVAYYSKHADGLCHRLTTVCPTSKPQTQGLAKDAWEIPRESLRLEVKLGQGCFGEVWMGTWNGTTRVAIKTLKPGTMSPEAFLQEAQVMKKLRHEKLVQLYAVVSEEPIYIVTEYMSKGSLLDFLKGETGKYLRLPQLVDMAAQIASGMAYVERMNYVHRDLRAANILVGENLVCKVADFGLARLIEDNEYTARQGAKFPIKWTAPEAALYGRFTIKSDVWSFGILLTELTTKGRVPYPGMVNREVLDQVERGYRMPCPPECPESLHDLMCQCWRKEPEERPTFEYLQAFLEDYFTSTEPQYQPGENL
Chain of Receptor-interacting serine/threonine-protein kinase 3 (Q9Y572 whole entry): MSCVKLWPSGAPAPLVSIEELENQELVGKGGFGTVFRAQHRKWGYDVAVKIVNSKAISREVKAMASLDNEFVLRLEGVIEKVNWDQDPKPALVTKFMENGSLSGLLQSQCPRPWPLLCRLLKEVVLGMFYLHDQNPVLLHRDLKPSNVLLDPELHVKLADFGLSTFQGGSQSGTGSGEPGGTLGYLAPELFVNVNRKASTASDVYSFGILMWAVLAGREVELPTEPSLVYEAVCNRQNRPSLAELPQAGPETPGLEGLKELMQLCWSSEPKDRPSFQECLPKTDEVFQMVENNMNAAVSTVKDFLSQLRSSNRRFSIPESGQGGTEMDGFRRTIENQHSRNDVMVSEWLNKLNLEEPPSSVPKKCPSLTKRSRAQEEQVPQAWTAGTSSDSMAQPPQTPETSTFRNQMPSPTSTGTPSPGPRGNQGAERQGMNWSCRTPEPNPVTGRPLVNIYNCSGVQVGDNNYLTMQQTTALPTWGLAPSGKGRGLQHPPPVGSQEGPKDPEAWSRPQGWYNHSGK
Chain of Mast/stem cell growth factor receptor Kit (P10721 whole entry): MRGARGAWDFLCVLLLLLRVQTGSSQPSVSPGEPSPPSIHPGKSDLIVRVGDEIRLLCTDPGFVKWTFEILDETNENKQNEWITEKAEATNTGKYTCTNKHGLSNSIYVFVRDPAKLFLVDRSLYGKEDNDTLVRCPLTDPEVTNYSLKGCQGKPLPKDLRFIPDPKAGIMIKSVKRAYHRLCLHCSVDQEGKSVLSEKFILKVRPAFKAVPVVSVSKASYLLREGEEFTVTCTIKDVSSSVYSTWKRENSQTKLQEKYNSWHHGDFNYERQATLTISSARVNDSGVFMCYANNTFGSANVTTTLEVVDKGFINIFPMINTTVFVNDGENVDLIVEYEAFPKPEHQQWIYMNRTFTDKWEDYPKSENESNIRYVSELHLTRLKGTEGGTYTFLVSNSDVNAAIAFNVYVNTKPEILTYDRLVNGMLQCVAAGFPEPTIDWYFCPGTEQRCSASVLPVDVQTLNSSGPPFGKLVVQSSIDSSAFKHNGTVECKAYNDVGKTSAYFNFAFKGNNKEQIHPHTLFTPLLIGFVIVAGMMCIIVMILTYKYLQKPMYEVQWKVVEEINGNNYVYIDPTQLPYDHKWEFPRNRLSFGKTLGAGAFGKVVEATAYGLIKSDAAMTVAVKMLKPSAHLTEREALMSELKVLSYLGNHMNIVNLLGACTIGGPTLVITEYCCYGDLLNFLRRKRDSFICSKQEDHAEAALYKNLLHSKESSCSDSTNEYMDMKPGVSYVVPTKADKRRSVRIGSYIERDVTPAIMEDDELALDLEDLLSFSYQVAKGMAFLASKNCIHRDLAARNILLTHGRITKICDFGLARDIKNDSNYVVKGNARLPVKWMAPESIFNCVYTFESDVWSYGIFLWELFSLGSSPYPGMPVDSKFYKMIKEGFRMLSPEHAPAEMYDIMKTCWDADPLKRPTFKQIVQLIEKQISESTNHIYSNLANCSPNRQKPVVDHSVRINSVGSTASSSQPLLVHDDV
Chain of Epithelial discoidin domain-containing receptor 1 (Q08345 whole entry, the tested form may be a part): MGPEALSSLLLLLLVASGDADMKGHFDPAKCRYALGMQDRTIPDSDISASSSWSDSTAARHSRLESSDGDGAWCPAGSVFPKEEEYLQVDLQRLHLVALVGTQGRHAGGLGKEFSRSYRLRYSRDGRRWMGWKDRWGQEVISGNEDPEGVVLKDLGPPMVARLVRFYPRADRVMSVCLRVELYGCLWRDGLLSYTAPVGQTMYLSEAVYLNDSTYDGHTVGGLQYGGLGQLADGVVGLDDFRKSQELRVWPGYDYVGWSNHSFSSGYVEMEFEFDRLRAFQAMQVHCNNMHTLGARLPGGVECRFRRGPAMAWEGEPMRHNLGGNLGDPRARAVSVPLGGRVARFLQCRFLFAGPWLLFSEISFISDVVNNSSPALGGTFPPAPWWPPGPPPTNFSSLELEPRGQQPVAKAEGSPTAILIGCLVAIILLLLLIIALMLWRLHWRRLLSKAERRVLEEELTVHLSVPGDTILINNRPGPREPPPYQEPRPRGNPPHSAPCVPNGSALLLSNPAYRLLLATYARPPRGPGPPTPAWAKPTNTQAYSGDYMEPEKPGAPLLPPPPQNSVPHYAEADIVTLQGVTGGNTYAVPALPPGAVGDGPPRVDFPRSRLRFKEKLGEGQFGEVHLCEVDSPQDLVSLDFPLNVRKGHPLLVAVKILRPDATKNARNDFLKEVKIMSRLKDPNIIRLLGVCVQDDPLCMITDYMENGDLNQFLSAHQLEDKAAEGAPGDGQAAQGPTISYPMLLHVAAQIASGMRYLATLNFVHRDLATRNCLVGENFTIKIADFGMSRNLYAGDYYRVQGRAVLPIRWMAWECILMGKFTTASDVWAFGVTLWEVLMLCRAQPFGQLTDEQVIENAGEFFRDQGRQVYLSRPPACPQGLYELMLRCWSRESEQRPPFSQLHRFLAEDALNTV

Cc1ccc(-c2cn([C@H]3CC[C@@H](N)CC3)c3ncnc(N)c23)c(F)c1
clearance [1]: 166 mL/min/kg
IC50 [2]: 12300 nM
Activity (BMDM): Non-Toxic
inhibition (RAW264.7): Active
IC50 [3]: 15 nM
IC50 [4]: 56 nM
IC50 [5]: 1510 nM
IC50 [6]: 4780 nM
Kd [7]: 74.5 nM
Kd [8]: 2300 nM
Cmax [9]: 959 ng/mL
Vd [10]: 333.24 L/kg
Activity (Mus musculus): Active
concentration at 0.5 h [11]: 3620 ng/g
